Measurements published in the supplement of paper PMC10627819.

Columns and labels:
S. pneumoniae D39V [1] = experiment: Bliss interaction score (quartile over a dose matrix) (fitness difference); higher = more antagonism (negative = synergy)
In short: (§1)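 Fitness here means normalised growth, inferred for single drugs from the combination data. Growth was OD595 at entry into stationary phase, divided by the plate's robust no-drug mean and capped at 1. The Bliss score is observed minus expected fitness, with the expectation being the product, and its quartiles span technical, biological and donor/recipient replicates.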

S. aureus DSM 20231 [2] = experiment: as above
In short: as §1

B. subtilis 168 [3] = experiment: as above
In short: as §1

S. aureus Newman [4] = experiment: as above
In short: as §1

S. aureus DSM 20231 [5] = experiment: fitness (endpoint OD595 vs no drug) (fraction); higher = more growth
In short: (§2)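 At 37 °C, bacteria in TSB, LB Lennox or CY were grown in 384-well plates from a starting OD595 of 0.01. OD595 was measured every 30 min for 14 h, with the first reading used as background. Fitness is the optical density at the switch to stationary phase as a fraction of the robust mean of no-drug control wells, capped at 1.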

B. subtilis 168 [6] = experiment: as above
In short: as §2

S. pneumoniae D39V [7] = experiment: as above
In short: as §2

S. aureus Newman [8] = experiment: as above
In short: as §2
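Wherever Bliss interaction score (quartile over a dose matrix) is given: first quartile when negative (synergy) and third quartile when positive (antagonism).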
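Wherever fitness (endpoint OD595 vs no drug) is given: OD595 on entry to stationary phase over no-drug wells; at most 1.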

C[C@@H]1O[C@@H]1P(=O)(O)O [Fosfomycin] + COc1cc(Cc2cnc(N)nc2N)cc(OC)c1OC [Trimethoprim]
Conditions	Bliss interaction score
B. subtilis 168 [3]	-0.112
S. aureus DSM 20231 [2]	0.0599
S. aureus Newman [4]	0.0927
S. pneumoniae D39V [1]	0.158

fitness
Conditions	partner 0.125 µg/mL	partner 0.25 µg/mL	partner 0.5 µg/mL	partner 1 µg/mL
B. subtilis 168 [6], first compound 1.562 µg/mL	0.572	0.405	0.35	–
B. subtilis 168 [6], first compound 3.124 µg/mL	0.447	0.369	0.218	–
B. subtilis 168 [6], first compound 6.248 µg/mL	0.307	0.236	0.0904	–
S. aureus DSM 20231 [5], first compound 0.781 µg/mL	0.592	0.56	0.182	0.0323
S. aureus DSM 20231 [5], first compound 1.562 µg/mL	0.56	0.484	0.106	0.0286
S. aureus DSM 20231 [5], first compound 3.124 µg/mL	0.499	0.327	0.0645	0.0282

fitness, B. subtilis 168 [6], one replicate
Conditions	partner 0.1 µg/mL	partner 0.2 µg/mL	partner 0.4 µg/mL	partner 1 µg/mL	partner 2 µg/mL
first compound 1.562 µg/mL	0.649	0.564	0.397	0.17	0.119
first compound 3.124 µg/mL	0.497	0.35	0.18	0.0628	0.0617
first compound 6.248 µg/mL	0.209	0.101	0.0381	0.0277	0.0228

Cc1ncc([N+](=O)[O-])n1CCO [Metronidazole] + CN(C)c1cc(NC(=O)CNC(C)(C)C)c(O)c2c1C[C@H]1C[C@H]3[C@H](N(C)C)C(O)=C(C(N)=O)C(=O)[C@@]3(O)C(O)=C1C2=O [Tigecycline]
Conditions	Bliss interaction score
B. subtilis 168 [3]	-0.0624
S. aureus DSM 20231 [2]	0.0589
S. aureus Newman [4]	0.0458
S. pneumoniae D39V [1]	0.0439

fitness
Conditions	first compound 0.625 µg/mL	first compound 1.073 µg/mL	first compound 1.25 µg/mL	first compound 2.145 µg/mL	first compound 2.5 µg/mL	first compound 4.29 µg/mL	first compound 5 µg/mL
B. subtilis 168 [6], partner 0.039 µg/mL	0.963	–	0.977	–	≥ 1	–	–
B. subtilis 168 [6], partner 0.078 µg/mL	0.942	–	0.94	–	0.976	–	–
B. subtilis 168 [6], partner 0.156 µg/mL	0.944	–	0.963	–	0.938	–	–
S. aureus Newman [8], partner 0.039 µg/mL	0.987	–	≥ 1	–	0.995	–	–
S. aureus Newman [8], partner 0.078 µg/mL	≥ 1	–	0.981	–	≥ 1	–	–
S. aureus Newman [8], partner 0.156 µg/mL	0.966	–	0.977	–	≥ 1	–	–
S. pneumoniae D39V [7], partner 0.65 µg/mL	–	0.931	0.965	0.925	0.968	0.935	0.964
S. pneumoniae D39V [7], partner 1.3 µg/mL	–	0.931	0.94	0.938	0.943	0.949	0.952
S. pneumoniae D39V [7], partner 2.6 µg/mL	–	0.921	0.957	0.911	0.964	0.943	0.952

fitness, one replicate
Conditions	first compound 0.625 µg/mL	first compound 0.781 µg/mL	first compound 1.25 µg/mL	first compound 1.562 µg/mL	first compound 2.5 µg/mL	first compound 3.124 µg/mL
B. subtilis 168 [6], partner 0.125 µg/mL	≥ 1	–	≥ 1	–	≥ 1	–
B. subtilis 168 [6], partner 0.25 µg/mL	0.963	–	0.942	–	0.967	–
B. subtilis 168 [6], partner 0.5 µg/mL	0.917	–	0.927	–	0.968	–
S. aureus Newman [8], partner 0.039 µg/mL	–	≥ 1	–	0.971	–	0.932
S. aureus Newman [8], partner 0.078 µg/mL	–	≥ 1	–	≥ 1	–	≥ 1
S. aureus Newman [8], partner 0.156 µg/mL	–	≥ 1	–	≥ 1	–	0.959
